Source: patent publication US7879858B2, “Substituted tetrahydropyrrolopyrazine compounds and the use thereof in pharmaceutical compositions” (Gruenenthal GmbH, priority 2006, dated 2011)

Key:
Serotonin reuptake = molecular target: T1, Serotonin reuptake (Rattus norvegicus, UniProt P31652); assay: Inhibition of 5HT (serotonin) uptake in rat brain synaptosomes; type: biochemical; conditions: synaptosomes from rat brain; for inhibition at 10 µM: 10 μmol
T1 construct: synaptosomes are freshly isolated from areas of the rat brain; from tissue; host or cells: rat brain synaptosomes (P2 fraction)
Protocol: (§1) Biological Data Inhibition of NA and 5HT Uptake
(§2) In order to be able to carry out these in vitro studies, synaptosomes are freshly isolated from areas of the rat brain. In each case a so-called “P2” fraction prepared in accordance with the instructions of Gray and Whittaker (E. G. Gray and V. P. Whittaker (1962) J. Anat. 76, 79-88) is prepared. For the NA uptake, these vesicular particles are isolated from the hypothalamus of male rat brains. A detailed description of the method can be found in the literature (M. Ch. Frink, H.-H. Hennies, W. Englberger, M. Haurand and B. Wilffert (1996) Arzneim.-Forsch./Drug Res. 46 (III), 11, 1029-1036).

NA reuptake = assay: Inhibition of NA (noradrenaline) uptake in rat hypothalamus synaptosomes; type: biochemical; conditions: synaptosomes from hypothalamus of male rat brains
Protocol: as §1, §2

T1 sequence (P31652 whole entry): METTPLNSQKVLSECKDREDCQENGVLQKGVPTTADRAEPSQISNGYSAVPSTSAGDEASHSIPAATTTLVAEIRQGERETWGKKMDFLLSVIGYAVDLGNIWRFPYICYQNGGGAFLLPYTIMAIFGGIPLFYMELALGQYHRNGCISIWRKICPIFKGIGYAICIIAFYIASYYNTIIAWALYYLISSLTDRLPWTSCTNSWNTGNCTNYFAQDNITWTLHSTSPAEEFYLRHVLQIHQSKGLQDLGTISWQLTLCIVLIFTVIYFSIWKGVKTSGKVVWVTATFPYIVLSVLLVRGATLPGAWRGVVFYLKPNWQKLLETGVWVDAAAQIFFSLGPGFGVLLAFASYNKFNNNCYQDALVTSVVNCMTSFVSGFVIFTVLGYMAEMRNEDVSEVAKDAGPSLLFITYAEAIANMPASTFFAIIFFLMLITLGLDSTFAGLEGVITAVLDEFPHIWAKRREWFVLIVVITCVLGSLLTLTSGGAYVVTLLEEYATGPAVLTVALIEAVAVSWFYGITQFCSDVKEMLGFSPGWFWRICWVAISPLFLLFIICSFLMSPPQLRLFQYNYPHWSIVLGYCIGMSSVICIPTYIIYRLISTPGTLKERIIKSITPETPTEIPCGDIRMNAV

| SMILES | inhibition at 10 µM (Serotonin reuptake) [%] | NA reuptake % inhibition [10 μmol] (NA reuptake) [%] | Serotonin reuptake % inhibition [10 μmol] (Serotonin reuptake) [%] |
| --- | --- | --- | --- |
| CN(C)c1ccc(C2c3cccn3CCN2C(=O)C2CC2)cc1 (stereo not drawn) [Example 52, cyclopropyl(1-(4-(dimethylamino)phenyl)-3,4-dihydropyrrolo[1,2-a]pyrazin-2(1H)-yl)methanone] | 27 | 16 |  |
| O=C(CCCCc1ccccc1)N1CCn2cccc2C1c1cccs1 (stereo not drawn) [Example 77, 5-phenyl-1-(1-(thiophen-2-yl)-3,4-dihydropyrrolo[1,2-a]pyrazin-2(1H)-yl)pentan-1-one] | 25 | 10 |  |
| CN(C)c1ccc(C2c3cccn3CCN2C(=O)c2cccs2)cc1 (stereo not drawn) [Example 53, (1-(4-(dimethylamino)phenyl)-3,4-dihydropyrrolo[1,2-a]pyrazin-2(1H)-yl)(thiophen-2-yl)methanone] | 31 | 26 |  |
| Cc1ccccc1C(=O)N1CCn2cccc2C1c1ccc(N(C)C)cc1 (stereo not drawn) [Example 50, (1-(4-(dimethylamino)phenyl)-3,4-dihydropyrrolo[1,2-a]pyrazin-2(1H)-yl)(o-tolyl)methanone] | 41 | 14 |  |
| O=C(CCC1CCCCC1)N1CCn2cccc2C1c1cccs1 (stereo not drawn) [Example 86, 3-cyclohexyl-1-(1-(thiophen-2-yl)-3,4-dihydropyrrolo[1,2-a]pyrazin-2(1H)-yl)propan-1-one] | 53 | 19 |  |
| O=C(c1ccco1)N1CCn2cccc2C1c1ccccc1 (stereo not drawn) [Example 21, furan-2-yl(1-phenyl-3,4-dihydropyrrolo[1,2-a]pyrazin-2(1H)-yl)methanone] | 11 | 44 |  |
| O=C(c1cccc(F)c1)N1CCn2cccc2C1c1cccs1 (stereo not drawn) [Example 58, (3-fluoro-phenyl)-(1-thiophen-2-yl-3,4-dihydro-1H-pyrrolo[1,2-a]pyrazin-2-yl)-methanone] | 60 | 54 |  |
| Cc1cccc(C2c3cccn3CCN2C(=O)c2ccc(F)cc2)c1 (stereo not drawn) [Example 13, (4-fluoro-phenyl)-(1-m-tolyl-3,4-dihydro-1H-pyrrolo[1,2-a]pyrazin-2-yl)-methanone] | 55 | 41 |  |
| O=C(c1cccs1)N1CCn2cccc2C1c1cccc(Cl)c1 (stereo not drawn) [Example 45, [1-(3-chloro-phenyl)-3,4-dihydro-1H-pyrrolo[1,2-a]pyrazin-2-yl]-thiophen-2-yl-methanone] | 53 | 43 |  |
| COc1ccccc1C(=O)N1CCn2cccc2C1c1cccc(Cl)c1 (stereo not drawn) [Example 39, (1-(3-chlorophenyl)-3,4-dihydropyrrolo[1,2-a]pyrazin-2-(1H)-yl)(2-methoxyphenyl)methanone] |  | 43 | 46 |
| O=C(c1ccc2c(c1)OCO2)N1CCn2cccc2C1c1ccccc1F (stereo not drawn) [Example 9, benzo[d][1,3]dioxol-5-yl(1-(2-fluorophenyl)-3,4-dihydropyrrolo[1,2-a]pyrazin-2(1H)-yl)methanone] | 30 | 27 |  |
| O=C(c1ccc(F)cc1)N1CCn2cccc2C1c1cccc(Cl)c1 (stereo not drawn) [Example 46, [1-(3-chloro-phenyl)-3,4-dihydro-1H-pyrrolo[1,2-a]pyrazin-2-yl]-(4-fluoro-phenyl)-methanone] | 52 | 50 |  |
| COc1ccccc1C(=O)N1CCn2cccc2C1c1ccccc1OC (stereo not drawn) [Example 4, (2-methoxy-phenyl)-[1-(2-methoxy-phenyl)-3,4-dihydro-1H-pyrrolo[1,2-a]pyrazin-2-yl]-methanone] | 82 | 13 |  |
| O=C(c1ccccc1F)N1CCn2cccc2C1c1ccc2c(c1)OCCO2 (stereo not drawn) [Example 35, [1-(2,3-dihydro-benzo[1,4]dioxin-6-yl)-3,4-dihydro-1H-pyrrolo[1,2-a]pyrazin-2-yl]-(2-fluoro-phenyl)-methanone] | 66 | 43 |  |
| O=C(/C=C/c1ccc(F)cc1F)N1CCn2cccc2C1c1ccccc1 (stereo not drawn) [Example 71, 3-(2,4-difluorophenyl)-1-(1-phenyl-3,4-dihydropyrrolo[1,2-a]pyrazin-2(1H)-yl)prop-2-en-1-one] | 27 | 17 |  |
| O=C(C1CCC1)N1CCn2cccc2C1c1ccc(Cl)c(Cl)c1 (stereo not drawn) [Example 66, cyclobutyl(1-(3,4-dichlorophenyl)-3,4-dihydropyrrolo[1,2-a]pyrazin-2(1H)-yl)methanone] | 43 | 32 |  |
| O=C(c1ccc(F)cc1)N1CCn2cccc2C1c1ccc2c(c1)OCCO2 (stereo not drawn) [Example 38, [1-(2,3-dihydro-benzo[1,4]dioxin-6-yl)-3,4-dihydro-1H-pyrrolo[1,2-a]pyrazin-2-yl]-(4-fluoro-phenyl)-methanone] | 58 | 48 |  |

| SMILES | inhibition at 10 µM (Serotonin reuptake) [%] | NA reuptake % inhibition [10 μmol] (NA reuptake) [%] | Serotonin reuptake % inhibition [10 μmol] (Serotonin reuptake) [%] |
| --- | --- | --- | --- |
| Cc1cccc(C2c3cccn3CCN2C(=O)CC(C)C)c1 (stereo not drawn) [Example 15, 3-methyl-1-(1-m-tolyl-3,4-dihydropyrrolo[1,2-a]pyrazin-2(1H)-yl)butan-1-one] | 28 | 19 |  |
| CC(C)C(=O)N1CCn2cccc2C1c1ccc(Cl)c(Cl)c1 (stereo not drawn) [Example 67, 1-(1-(3,4-dichlorophenyl)-3,4-dihydropyrrolo[1,2-a]pyrazin-2(1H)-yl)-2-methylpropan-1-one] | 46 | 46 |  |
| COCC(=O)N1CCn2cccc2C1c1ccccc1 (stereo not drawn) [Example 25, 2-methoxy-1-(1-phenyl-3,4-dihydropyrrolo[1,2-a]pyrazin-2(1H)-yl)ethanone] | 33 | 12 |  |
| Cc1cccc(C2c3cccn3CCN2C(=O)c2ccc3c(c2)OCO3)c1 (stereo not drawn) [Example 18, benzo[1,3]dioxol-5-yl-(1-m-tolyl-3,4-dihydro-1H-pyrrolo[1,2-a]pyrazin-2-yl)-methanone] | 55 | 40 |  |
| O=C(c1ccc(F)cc1)N1CCn2cccc2C1c1ccc(F)cc1F (stereo not drawn) [Example 19, (1-(2,4-difluorophenyl)-3,4-dihydropyrrolo[1,2-a]pyrazin-2(1H)-yl)(4-fluorophenyl)methanone] | 35 | 28 |  |
| Cc1ccccc1C1c2cccn2CCN1C(=O)C1CCCC1 (stereo not drawn) [Example 10, cyclopentyl-(1-o-tolyl-3,4-dihydro-1H-pyrrolo[1,2-a]pyrazin-2-yl)-methanone] | 50 | 30 |  |
| Cc1cccc(C2c3cccn3CCN2C(=O)c2cccs2)c1 (stereo not drawn) [Example 14, thiophen-2-yl(1-m-tolyl-3,4-dihydropyrrolo[1,2-a]pyrazin-2(1H)-yl)methanone] | 27 | 25 |  |
| Cc1ccccc1C(=O)N1CCn2cccc2C1c1ccccc1F (stereo not drawn) [Example 8, (1-(2-fluorophenyl)-3,4-dihydropyrrolo[1,2-a]pyrazin-2(1H)-yl)(o-tolyl)methanone] | 37 | 18 |  |
| O=C(c1ccccc1F)N1CCn2cccc2C1c1cccc(Cl)c1 (stereo not drawn) [Example 44, [1-(3-chloro-phenyl)-3,4-dihydro-1H-pyrrolo[1,2-a]pyrazin-2-yl]-(2-fluoro-phenyl)-methanone] | 53 | 41 |  |
| O=C(c1ccco1)N1CCn2cccc2C1c1ccccc1F (stereo not drawn) [Example 5, (1-(2-fluorophenyl)-3,4-dihydropyrrolo[1,2-a]pyrazin-2(1H)-yl)(furan-2-yl)methanone] | 11 | 34 |  |
| O=C(/C=C/c1ccccc1)N1CCn2cccc2C1c1cccs1 (stereo not drawn) [Example 72, 3-phenyl-1-(1-(thiophen-2-yl)-3,4-dihydropyrrolo[1,2-a]pyrazin-2(1H)-yl)prop-2-en-1-one] | 28 | 23 |  |
| O=C(c1ccc2c(c1)OCO2)N1CCn2cccc2C1c1cccc(Cl)c1 (stereo not drawn) [Example 40, benzo[d][1,3]dioxol-5-yl(1-(3-chlorophenyl)-3,4-dihydropyrrolo[1,2-a]pyrazin-2(1H)-yl)methanone] | 38 | 41 |  |
| O=C(c1cccc(F)c1)N1CCn2cccc2C1c1ccccc1F (stereo not drawn) [Example 7, (3-fluoro-phenyl)-[1-(2-fluoro-phenyl)-3,4-dihydro-1H-pyrrolo[1,2-a]pyrazin-2-yl]-methanone] | 54 | 36 |  |
| COc1cccc(C2c3cccn3CCN2C(=O)c2ccco2)c1 (stereo not drawn) [Example 30, furan-2-yl(1-(3-methoxyphenyl)-3,4-dihydropyrrolo[1,2-a]pyrazin-2(1H)-yl)methanone] | 51 | 16 |  |
| Cc1cccc(C2c3cccn3CCN2C(=O)c2cccc(F)c2)c1 (stereo not drawn) [Example 16, (3-fluoro-phenyl)-(1-m-tolyl-3,4-dihydro-1H-pyrrolo[1,2-a]pyrazin-2-yl)-methanone] | 54 | 49 |  |
| O=C(C1CC1)N1CCn2cccc2C1c1ccccc1F (stereo not drawn) [Example 6, cyclopropyl(1-(2-fluorophenyl)-3,4-dihydropyrrolo[1,2-a]pyrazin-2(1H)-yl)methanone] | 34 | 13 |  |
